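Exposure lasted 48 hours, with cells grown in 96-well plates and compounds tested at five concentrations. The concentration for 50% growth inhibition is given as GI50.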 The source made the active and inactive calls. Cut-off read from the data, not from the text of the source: active = GI50 up to about 1.1 µM and inactive = higher.
What was measured:
Assay in all cases: DTP human tumour cell line panel, 48 h
[1] = tested on: 786-0
[2] = tested on: COLO 205
[3] = tested on: HCT-116
[4] = tested on: HOP-62
[5] = tested on: K562
[6] = tested on: LOX IMVI
[7] = tested on: NCI-H460
[8] = tested on: OVCAR-3
[9] = tested on: RXF 393
[10] = tested on: SF-268
[11] = tested on: SF-295
[12] = tested on: SF-539
[13] = tested on: SK-MEL-28
[14] = tested on: SNB-19
[15] = tested on: SW-620
[16] = tested on: U-251
[17] = tested on: NCI-H23
[18] = tested on: SK-OV-3
[19] = tested on: HCC 2998

SMILES | GI50 [1] | GI50 [2] | GI50 [3] | GI50 [4] | GI50 [5] | GI50 [6] | GI50 [7] | GI50 [8] | GI50 [9] | GI50 [10] | GI50 [11] | GI50 [12] | GI50 [13] | GI50 [14] | GI50 [15] | GI50 [16] | GI50 [17] | GI50 [18] | GI50 [19]
CCN(CC)CCOC(=O)/C(=C/c1ccc(OC)cc1)c1cc(OC)c(OC)c(OC)c1 | 7.64 µM (inactive) | 5.75 µM (inactive) | 5.45 µM (inactive) | 3.8 µM (inactive) | 3.29 µM (inactive) | 5.08 µM (inactive) | 9.66 µM (inactive) | 4.95 µM (inactive) | 2.15 µM (inactive) | 5.45 µM (inactive) | 1.83 µM (inactive) | 3.28 µM (inactive) | 6.08 µM (inactive) | 13.4 µM (inactive) | 4.18 µM (inactive) | 4.06 µM (inactive) |  |  | 
O=C(Nc1ccc(Cl)cc1Cl)C(=O)C(C(=O)c1ccc2ccccc2c1)C1OC(=O)c2ccccc21 (centres undefined) | 5.97 µM (inactive) | 9.46 µM (inactive) | 5.56 µM (inactive) | 11.9 µM (inactive) |  | 5.19 µM (inactive) | 4.33 µM (inactive) | 10.7 µM (inactive) | 2.16 µM (inactive) | > 10 µM (inactive) | 4.02 µM (inactive) | 2.68 µM (inactive) | 3.48 µM (inactive) | 5.78 µM (inactive) | 6.73 µM (inactive) | 2.51 µM (inactive) | 2.92 µM (inactive) | 26.8 µM (inactive) | 
COc1cc2c(cc1OC)C(C(=O)O)C(c1ccccc1)N(C)C2=O (centres undefined) | > 100 µM (inactive) | > 100 µM (inactive) | > 100 µM (inactive) | > 100 µM (inactive) | > 100 µM (inactive) |  | > 100 µM (inactive) | > 100 µM (inactive) |  | > 100 µM (inactive) | > 100 µM (inactive) | > 100 µM (inactive) | > 100 µM (inactive) | > 100 µM (inactive) | > 100 µM (inactive) | > 100 µM (inactive) | > 100 µM (inactive) | > 100 µM (inactive) | > 100 µM (inactive)
CC(=O)OCC1OC(OCc2ccccc2)C(Br)C(OC(C)=O)C1OC(C)=O (centres undefined) | > 100 µM (inactive) | > 100 µM (inactive) | > 100 µM (inactive) | > 100 µM (inactive) | > 100 µM (inactive) | > 100 µM (inactive) | > 100 µM (inactive) | > 100 µM (inactive) | > 100 µM (inactive) | > 100 µM (inactive) | > 100 µM (inactive) | > 100 µM (inactive) | > 100 µM (inactive) | > 100 µM (inactive) | > 100 µM (inactive) | > 100 µM (inactive) | > 100 µM (inactive) |  | > 100 µM (inactive)
O=C(Nc1ccc(Nc2ccc(NC(=O)c3ccccc3)c3c2C(=O)c2ccccc2C3=O)c2c1C(=O)c1ccccc1C2=O)c1ccccc1 | 52.5 µM (inactive) | > 100 µM (inactive) | > 100 µM (inactive) | > 100 µM (inactive) | > 100 µM (inactive) |  | > 100 µM (inactive) | > 100 µM (inactive) | > 100 µM (inactive) | > 100 µM (inactive) |  | > 100 µM (inactive) | > 100 µM (inactive) | > 100 µM (inactive) | > 100 µM (inactive) | > 100 µM (inactive) |  | > 100 µM (inactive) | > 100 µM (inactive)
O=C(Nc1nc2ccc([N+](=O)[O-])cc2s1)C(=O)C(C(=O)c1ccncc1)C1OC(=O)c2ccccc21 (centres undefined) | > 100 µM (inactive) | > 100 µM (inactive) | > 100 µM (inactive) | > 100 µM (inactive) | > 100 µM (inactive) |  |  | > 100 µM (inactive) | > 100 µM (inactive) | > 100 µM (inactive) |  |  |  | > 100 µM (inactive) | > 100 µM (inactive) | > 100 µM (inactive) | > 100 µM (inactive) |  | > 100 µM (inactive)
Cc1cccc(NC(=O)CC#N)c1Cl | > 100 µM (inactive) |  | > 100 µM (inactive) |  | > 100 µM (inactive) | > 100 µM (inactive) |  | > 100 µM (inactive) |  | > 100 µM (inactive) | > 100 µM (inactive) | > 100 µM (inactive) | > 100 µM (inactive) | > 100 µM (inactive) | > 100 µM (inactive) | > 100 µM (inactive) | > 100 µM (inactive) | > 100 µM (inactive) | 
O=C1C=CC(=O)C2C1Cc1ccccc1C2c1ccccc1 (centres undefined) | 38.5 µM (inactive) | 19.5 µM (inactive) | 37.6 µM (inactive) | > 100 µM (inactive) | 31.6 µM (inactive) | 41.6 µM (inactive) | 29.9 µM (inactive) | 29.6 µM (inactive) |  | 53.1 µM (inactive) | > 100 µM (inactive) | 30.5 µM (inactive) | 97.1 µM (inactive) | > 100 µM (inactive) | 27.7 µM (inactive) | 18.2 µM (inactive) | 62.1 µM (inactive) | > 100 µM (inactive) | 21.7 µM (inactive)
Cc1ccc(S(=O)(=O)CC(=O)CC(=O)C(=O)Nc2cccc(C(F)(F)F)c2)cc1 | > 100 µM (inactive) |  | 44.4 µM (inactive) |  | > 100 µM (inactive) | > 100 µM (inactive) |  | > 100 µM (inactive) |  | > 100 µM (inactive) | > 100 µM (inactive) | > 100 µM (inactive) | > 100 µM (inactive) | > 100 µM (inactive) | > 100 µM (inactive) | > 100 µM (inactive) | > 100 µM (inactive) | > 100 µM (inactive) | 
COc1ccc(S(=O)(=O)N/N=C\c2cc([N+](=O)[O-])cc(I)c2O)c(OC)c1OC | 24.7 µM (inactive) | 21.4 µM (inactive) |  |  | 31.6 µM (inactive) | 32.5 µM (inactive) | 33 µM (inactive) | 20.7 µM (inactive) | 20.8 µM (inactive) | 26.5 µM (inactive) | 30.6 µM (inactive) |  | 24.5 µM (inactive) | 21.1 µM (inactive) | 39.8 µM (inactive) | 25.3 µM (inactive) | 30.5 µM (inactive) | 25 µM (inactive) | 31.4 µM (inactive)
CCN(CC)CCCCC1CCN(CC(=O)N2CC(C)C(=O)Nc3ccccc32)CC1 (centres undefined) | > 100 µM (inactive) | > 100 µM (inactive) | > 100 µM (inactive) | > 100 µM (inactive) | > 100 µM (inactive) | > 100 µM (inactive) | > 100 µM (inactive) | > 100 µM (inactive) |  | > 100 µM (inactive) | > 100 µM (inactive) |  | > 100 µM (inactive) | > 100 µM (inactive) | > 100 µM (inactive) | > 100 µM (inactive) | > 100 µM (inactive) | > 100 µM (inactive) | > 100 µM (inactive)
CC(=O)Nc1ccc2c(c1)C(=O)c1cccc(F)c1-2 | 71.6 µM (inactive) | 53 µM (inactive) | 24.2 µM (inactive) | 51.3 µM (inactive) | 50.2 µM (inactive) | 38.2 µM (inactive) | 35.4 µM (inactive) | 68.2 µM (inactive) | 23.6 µM (inactive) | 48.1 µM (inactive) | 54.2 µM (inactive) | 0.0234 µM (active) | > 100 µM (inactive) | > 100 µM (inactive) | 57.3 µM (inactive) | 38.6 µM (inactive) | 43.9 µM (inactive) | > 100 µM (inactive) | 

Source: ChEMBL document CHEMBL1201862, “PubChem BioAssay data set” (2004)
